How the values were obtained:
HeLa = experiment: Selectivity ratio of IC50 for drug to SAHA against human HDAC in HeLa cell nuclear extract; assay type: cell-based
[1] = molecular target: Histone deacetylase (Homo sapiens) (UniProt Q13547+O15379+Q9UBN7+Q92769+Q9UQL6+Q8WUI4+Q9BY41+Q96DB2+P56524+Q9UKV0+Q969S8); settings: HeLa, at 50 nM
Description: Inhibition of human HDAC in human HeLa cell nuclear extract at 50 nM after 15 mins by colorimetric assay

Histone deacetylase = experiment: Inhibition of human HDAC in human HeLa cell nuclear extract after 15 mins by colorimetric assay; assay type: cell-based

SMILES	Ratio IC50 (HeLa)	inhibition [1] [%]	IC50 (Histone deacetylase) [nM]
O=C(CCCCC[Se][Se]CCCCCC(=O)Nc1ccccc1)Nc1ccccc1	> 20	81	–
N#C[Se]CCCCCC(=O)Nc1ccccc1	20	95	8.9
